Assay results as given in patent US20190231768A1, “P[…] TREATING DRUG INDUCED DYSKINESIAS” (PRILENIA THERAPEUTICS DEVELOPMENT LTD., priority 2017, published 2019).
Like-named read-outs stand apart in the source and are kept apart here.

Tests used:
Adrenergic α2A = Adrenergic α2A (Homo sapiens, UniProt P08913)
Method: (§1) NMDA, 5-HT6 and tachykinin NK1 receptors along with the dopamine transporter (DAT), norepinephrine transporter (NET) and serotonin transporter (SERT). The specific ligand binding to the receptors was defined as the difference between the total binding and the nonspecific binding determined in the presence of an excess of unlabeled ligand. IC50 values were determined by a non-linear, least squares regression analysis using MathIQ™ (ID Business Solutions Ltd., UK). […] Hill coefficient (nH), defining the slope of the competitive binding curve, was calculated using MathIQ™.

NMDAR = tested on: NMDAR
Method: as §1

Serotonin 5-HT1A = Serotonin 5-HT1A (Homo sapiens, UniProt P08908)
Method: as §1

Serotonin 5-HT7 = Serotonin 5-HT7 (Homo sapiens, UniProt P34969)
Method: as §1

Tachykinin NK1 = Tachykinin NK1 (Homo sapiens, UniProt P25103)
Method: as §1

adrenergic alpha-1 = settings: in the micromolar range
Method: as §1

D2R = D2R (Rattus norvegicus, UniProt P61169); assay: in vivo; settings: po, read-out: % D2R occupancy
Source text: (§2) NHP σ1R occupancy data are extrapolated from in vitro binding investigations with 3H-fluspidine, known and specific σ1R tracer, against human σ1R.

σ1R [1] = molecular target: σ1R (Homo sapiens, UniProt Q99720); assay: in vivo
Source text: as §2

σ1R [2] = molecular target: σ1R (Rattus norvegicus, UniProt Q9R0C9); assay: in vivo; settings: po, read-out: % σ1R occupancy
Source text: as §2

[3] = tested on: MPTP-lesioned macaques with L-DOPA-induced dyskinesia
Method: The study was conducted in two separate experiments. […] Animals: Eight cynomolgus monkeys (Macaca fascicularis, 8-14 years of age, 3.0-4.8 kg, Suzhou Xishan-Zhongke Laboratory Animal Company, PRC) were used in this study. Fresh fruit, primate pellets and water were available ad libitum other than at times of overnight fasting (from 5 pm) prior to days of behavioral assessment. The housing rooms were subject to a 12-hour light-dark cycle (lights on 7 a.m.), 20-25° C. in a room containing only animals of the same sex.
MPTP administration and development of motor complications: Animals received once-daily subcutaneous injection of MPTP (0.2 mg/kg in 0.9% sterile-saline, Sigma-Aldrich, Oakville, ON, Canada) for 8-30 days. A parkinsonian syndrome was then allowed to develop over at least a 90-day period, during which time additional MPTP administrations were given as necessary, until animals reached moderate to marked levels of disability. […] MPTP lesions were allowed to stabilize for a minimum of a further 60-day prior to commencing induction of L-DOPA-induced motor complications. LID, including both choreiform and dystonic dyskinesia, were evoked by chronic L-DOPA treatment (25 mg/kg, Madopar™, Roche, L-DOPA: benserazide, ratio 4:1) for at least 4-months. During this same period animals were acclimatized to the experimental setting, trained to provide blood samples (while restrained in chair) and to receive administration of treatment by oral, intravenous or subcutaneous routes.
The response to this dose of L-DOPA was assessed to ensure stability and reproducibility within each animal on successive L-DOPA administrations.
For both studies, on the day before behavioral observations, food was removed overnight, from 5 p.m. On days of behavioral assessment, treatments were administered to the animals in their home cages. Animals were then transferred to an observation cage for behavioral assessment. […] The effects of treatments on parkinsonian disability, dyskinesia, duration and quality of anti-parkinsonian benefit (on-time) and activity were assessed and analyzed for a period of 6 hours (h).
Assessment of parkinsonian disability, dyskinesia (chorea and dystonia) and activity: Animals were transferred to individual observation cages (1.5×1.0×1.1 m) and their behavior recorded on HD-video. Rating scales for parkinsonism and dyskinesia adapted from their clinical counterparts (UPDRS pt. III and UDysRS respectively) were used to assess recordings via post-hoc analysis by a movement disorders neurologist blinded to treatment. […] Dyskinesia, representative of the maximum of either chorea or dystonia was scored as 0—absent, 1—mild, 2—moderate, 3—marked or 4—severe. Parkinsonian disability and dyskinesia were assessed for 5-min every 10-min, the score given being most representative of each 5-min observation period. Scores were summed for each hour for time-course analyses and across the entire observation period (0-6 h).
The duration of anti-parkinsonian action, on-time, was defined as the number of minutes for which the bradykinesia score was zero. In addition, the duration of on-time associated with dyskinesia of varying severity was calculated as follows. On-time with disabling dyskinesia, ‘bad’-on-time was calculated the number of minutes for which the bradykinesia score was zero while the dyskinesia score was greater than 2. Meanwhile, on-time without disabling dyskinesia, ‘good’-on-time represents the number of minutes for which the bradykinesia score is zero while the dyskinesia score is 2 or less.
Statistical analyses: Data derived from assessment of duration and quality of on-time were plotted as mean±s.e.m. […] Data for measures of parkinsonian disability and dyskinesia were graphed, where appropriate, as median scores alone (time course) or box and whisker plots (cumulated totals). Time course data for parkinsonian disability and dyskinesia were first ranked within each animal across all treatments using Excel's RANKAVG function. […]

[4] = study 2, 30 mg/kg, cumulated 0-2 h

Chain of σ1R (Homo sapiens, UniProt Q99720) (Q99720 whole entry): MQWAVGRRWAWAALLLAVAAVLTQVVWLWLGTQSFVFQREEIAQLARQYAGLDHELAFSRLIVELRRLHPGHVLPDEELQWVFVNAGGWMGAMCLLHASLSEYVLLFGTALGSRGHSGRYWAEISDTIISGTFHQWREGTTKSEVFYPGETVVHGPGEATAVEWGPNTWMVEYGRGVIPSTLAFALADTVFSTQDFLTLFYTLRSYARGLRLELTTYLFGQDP
Chain of D2R (P61169 whole entry): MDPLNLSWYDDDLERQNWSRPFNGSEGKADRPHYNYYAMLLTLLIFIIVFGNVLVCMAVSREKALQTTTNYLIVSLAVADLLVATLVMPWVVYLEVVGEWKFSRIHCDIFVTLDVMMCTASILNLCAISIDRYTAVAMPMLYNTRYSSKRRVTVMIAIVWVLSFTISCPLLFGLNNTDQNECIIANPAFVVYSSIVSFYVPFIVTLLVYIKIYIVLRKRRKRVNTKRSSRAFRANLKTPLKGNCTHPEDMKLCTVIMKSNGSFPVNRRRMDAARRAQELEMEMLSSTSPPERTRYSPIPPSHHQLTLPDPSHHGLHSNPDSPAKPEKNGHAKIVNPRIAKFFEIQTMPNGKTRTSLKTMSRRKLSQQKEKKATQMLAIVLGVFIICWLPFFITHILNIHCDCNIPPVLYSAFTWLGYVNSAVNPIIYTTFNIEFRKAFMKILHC
Chain of σ1R (Rattus norvegicus, UniProt Q9R0C9) (Q9R0C9 whole entry): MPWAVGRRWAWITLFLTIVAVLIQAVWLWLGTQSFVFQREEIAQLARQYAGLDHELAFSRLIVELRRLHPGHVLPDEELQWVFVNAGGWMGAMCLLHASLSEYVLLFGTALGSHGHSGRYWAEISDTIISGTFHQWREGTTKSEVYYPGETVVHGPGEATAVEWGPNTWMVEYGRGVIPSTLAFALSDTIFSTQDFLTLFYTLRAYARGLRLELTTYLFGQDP
Chain of Adrenergic α2A (P08913 whole entry): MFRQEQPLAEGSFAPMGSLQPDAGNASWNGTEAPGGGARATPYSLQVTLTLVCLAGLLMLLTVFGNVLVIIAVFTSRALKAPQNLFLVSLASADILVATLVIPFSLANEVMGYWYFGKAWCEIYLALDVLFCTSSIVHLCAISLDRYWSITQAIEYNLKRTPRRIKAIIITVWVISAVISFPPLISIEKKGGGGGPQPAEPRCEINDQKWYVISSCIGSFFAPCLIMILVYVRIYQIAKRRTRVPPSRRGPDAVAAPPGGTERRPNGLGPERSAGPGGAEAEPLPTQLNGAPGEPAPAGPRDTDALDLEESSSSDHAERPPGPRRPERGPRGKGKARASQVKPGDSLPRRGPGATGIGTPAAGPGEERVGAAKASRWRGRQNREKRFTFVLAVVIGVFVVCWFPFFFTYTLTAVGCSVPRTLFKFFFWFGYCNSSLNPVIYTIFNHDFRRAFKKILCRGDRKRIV
Chain of Tachykinin NK1 (P25103 whole entry): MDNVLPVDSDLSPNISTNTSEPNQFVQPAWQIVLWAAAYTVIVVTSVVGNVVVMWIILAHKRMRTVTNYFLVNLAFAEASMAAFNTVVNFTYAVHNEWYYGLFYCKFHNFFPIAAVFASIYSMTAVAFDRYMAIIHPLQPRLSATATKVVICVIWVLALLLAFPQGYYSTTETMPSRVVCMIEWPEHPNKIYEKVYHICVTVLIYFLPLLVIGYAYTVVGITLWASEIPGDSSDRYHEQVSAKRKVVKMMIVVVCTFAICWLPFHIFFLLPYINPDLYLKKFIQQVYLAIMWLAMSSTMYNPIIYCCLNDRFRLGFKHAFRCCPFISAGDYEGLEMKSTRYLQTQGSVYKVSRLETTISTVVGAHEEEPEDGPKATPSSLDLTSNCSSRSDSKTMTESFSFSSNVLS
Chain of Serotonin 5-HT7 (P34969 whole entry): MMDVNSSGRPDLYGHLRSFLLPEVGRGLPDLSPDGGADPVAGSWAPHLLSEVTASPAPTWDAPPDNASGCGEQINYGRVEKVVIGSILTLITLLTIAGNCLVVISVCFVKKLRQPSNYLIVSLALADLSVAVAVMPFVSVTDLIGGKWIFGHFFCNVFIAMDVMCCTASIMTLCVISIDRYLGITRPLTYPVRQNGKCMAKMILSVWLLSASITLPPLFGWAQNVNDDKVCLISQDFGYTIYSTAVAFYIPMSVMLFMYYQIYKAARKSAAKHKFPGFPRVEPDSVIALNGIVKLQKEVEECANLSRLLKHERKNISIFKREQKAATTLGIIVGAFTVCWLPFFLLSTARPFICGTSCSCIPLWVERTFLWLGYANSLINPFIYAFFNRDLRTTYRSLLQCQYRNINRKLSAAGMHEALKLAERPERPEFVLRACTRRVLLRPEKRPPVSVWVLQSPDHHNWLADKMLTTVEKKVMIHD
Chain of Serotonin 5-HT1A (P08908 whole entry): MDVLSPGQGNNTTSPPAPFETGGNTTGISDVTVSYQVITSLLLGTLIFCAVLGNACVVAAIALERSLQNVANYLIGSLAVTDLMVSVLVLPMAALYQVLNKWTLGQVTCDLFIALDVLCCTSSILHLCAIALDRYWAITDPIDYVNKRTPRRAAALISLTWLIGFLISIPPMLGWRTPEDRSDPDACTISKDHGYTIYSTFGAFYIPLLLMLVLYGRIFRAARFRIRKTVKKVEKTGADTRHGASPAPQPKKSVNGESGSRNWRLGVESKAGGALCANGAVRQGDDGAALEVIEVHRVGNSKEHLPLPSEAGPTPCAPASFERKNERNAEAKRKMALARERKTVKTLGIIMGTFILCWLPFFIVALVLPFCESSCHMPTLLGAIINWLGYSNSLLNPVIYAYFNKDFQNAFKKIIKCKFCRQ

CCCN1CCC(c2cccc(S(C)(=O)=O)c2)CC1 [pridopidine, 4-(3-(methylsulfonyl)phenyl)-1-propylpiperidine]
nH (Hill coefficient) (Adrenergic α2A): 0.98 | binding (NMDAR): no observed binding | nH (Hill coefficient) (Serotonin 5-HT1A): 0.72 | nH (Hill coefficient) (Serotonin 5-HT7): 1.02 | binding (Tachykinin NK1): no observed binding | binding (adrenergic alpha-1): low-affinity binding | receptor occupancy at 60 mg/kg (D2R): 45% | % σ1R occupancy (σ1R [1]; NHP, 15 mg/kg PO, extrapolated from in vitro binding, 15 mg/kg): >80% | receptor occupancy at 7 mg/kg (σ1R [1]; po, read-out: % σ1R occupancy, NHP, 7 mg/kg PO, extrapolated from in vitro binding): 60 to 80% | receptor occupancy at 15 mg/kg (σ1R [1]; po, read-out: % σ1R occupancy, NHP, 15 mg/kg PO, extrapolated from in vitro binding): > 85% | receptor occupancy at 20 mg/kg (σ1R [1]; po, read-out: % σ1R occupancy, NHP, 20 mg/kg PO, extrapolated from in vitro binding): > 80% | receptor occupancy at 30 mg/kg (σ1R [1]; po, read-out: % σ1R occupancy, NHP, 30 mg/kg PO, extrapolated from in vitro binding): > 80% | receptor occupancy at 30 mg/kg (σ1R [1]; read-out: S1R occupancy (expected), high, effective dose (30 mg/kg, or 20 mg/kg in study 1)): > 80% | receptor occupancy at 20 mg/kg (σ1R [1]; read-out: S1R occupancy (expected), low, ineffective doses (7 and 15 mg/kg (study 1), 20 mg/kg in study 2)): > 80% | receptor occupancy at 60 mg/kg (σ1R [2]): > 85% | Dyskinesia (time course), significance cf. LDh-vehicle ([3]; 20 mg/kg + LDh, hr 1): * (*/**/*** represents P < 0.05, P < 0.01 or P < 0.001 cf. vehicle-treatment) | L-DOPA induced Dystonia (time course), significance cf. LDh-vehicle ([3]; 20 mg/kg + LDh, hr 1): * (*/**/*** represents P < 0.05, P < 0.01 or P < 0.001 cf. vehicle-treatment) | Dyskinesia (time course), significance cf. LDh-vehicle ([3]; 30 mg/kg + LDh, hr 1): ** (*/**/*** represents P < 0.05, P < 0.01 or P < 0.001 cf. vehicle-treatment) | L-DOPA induced Dystonia (time course), significance cf. LDh-vehicle ([3]; 30 mg/kg + LDh, hr 1): ** (*/**/*** represents P < 0.05, P < 0.01 or P < 0.001 cf. vehicle-treatment) | Dyskinesia (time course), significance cf. LDh-vehicle ([3]; 30 mg/kg + LDh, hr 2): *** (*/**/*** represents P < 0.05, P < 0.01 or P < 0.001 cf. vehicle-treatment) | L-DOPA induced Dystonia (time course), significance cf. LDh-vehicle ([3]; 30 mg/kg + LDh, hr 2): *** (*/**/*** represents P < 0.05, P < 0.01 or P < 0.001 cf. vehicle-treatment) | L-DOPA induced Dystonia (time course), significance cf. LDh-vehicle ([3]; 30 mg/kg + LDh, hr 3): * (*/**/*** represents P < 0.05, P < 0.01 or P < 0.001 cf. vehicle-treatment) | LID ([3]; MPTP-lesioned NHPs, high-dose): significant and meaningful decrease | LID ([3]; PD NHP model, low doses): ineffective | total duration of on-time or extent of anti-parkinsonian benefit of L-DOPA ([3]; study 1): absence of any change | anti-parkinsonian benefit afforded by L-DOPA ([3]; study 1, 7 mg/kg, first two hours of observation): modest decrease | total duration of on-time ([3]; study 2, 0-6 h): no change | median level of dyskinesia ([3]; study 2, 20 mg/kg, first hour): between moderate and marked | median level of dystonia ([3]; study 2, 20 mg/kg, first hour): between moderate and marked | 'bad' quality on-time ([3]; study 2, 30 mg/kg): 66 min | decrease in 'bad' quality on-time compared to vehicle ([3]; study 2, 30 mg/kg): 60% | median level of dyskinesia [3, 4]: below mild (non-disabling) | median level of dystonia [3, 4]: below mild (non-disabling) | reduction of median levels of dyskinesia compared to LDh-vehicle [3, 4]: 71% | reduction of median levels of dystonia compared to LDh-vehicle [3, 4]: 72% | median level of dyskinesia ([3]; study 2, 30 mg/kg, first and second hours): mild to moderate | median level of dystonia ([3]; study 2, 30 mg/kg, first to third hours): mild to moderate | proportion of on-time of 'good' quality cf. LDh-vehicle ([3]; study 2, any dose): no difference
